- melting point: 116 to 117 °C
SMILES: CCCCCn1c2ccccc2c2cc(C(=O)c3ccccc3)ccc21

From patent US20170096426A1 (published 2017)
